Results on 56 compounds are retold here after the OPERA property sets (Mansouri et al. 2018).

Structures are written as SMILES. ≈ marks a conversion by molar mass, not a printed value.

Compound `C=CCCC#N` gave a boiling point of 140 °C.
On to `NNc1cc(Cl)ccc1Cl`, for which the melting point was 102 °C.
On to `CCSSCC`, for which the boiling point was 154 °C, the log10 Henry constant (atm·m³/mol) is -2.67, the log10 vapour pressure (mmHg) is 0.631 and the melting point is -102 °C. This compound gave a solubility of 2450 µM (≈ 300 µg/mL).
Consider `O=C(CC(=O)C(F)(F)F)c1cccs1`, for which the melting point turned out to be 42 °C.
Turning to `CCCCNCC`, the boiling point was 108 °C, the melting point was -78 °C and the ready biodegradability result is “readily biodegradable”.
For `OCCCOCCCO`, the ready biodegradability result is given as “not readily biodegradable”.
For the compound `Clc1cc2oc3c(Cl)c(Cl)ccc3c2cc1Cl`, the log10 vapour pressure (mmHg) was -7.68 and the melting point worked out at 195 °C.
In turn, `O=C(O)C1CCCCC1` came in with a boiling point of 232 °C and a melting point of 31.5 °C.
`C[N+](C)(C)CCOC(=O)CCC(=O)OCC[N+](C)(C)C.[Br-].[Br-]`: the melting point stood at 225 °C.
On the same count and under the same terms, the value for `CC(C)(C)c1cc(O)c(C(C)(C)C)cc1O` was 218 °C.
`S=C(NC1CCCCC1)NC1CCCCC1`: the ready biodegradability entry is reported as “not readily biodegradable”.
The compound `CCc1cccc(C(C)=O)c1` showed a log10 vapour pressure (mmHg) of 0.357 and a melting point of -20 °C.
Turning to `CCCN(CCC)C(=O)C(CCC(=O)O)NC(=O)c1ccccc1` (stereo unspecified), the melting point was determined as 144 °C.
Regarding `CC(C)(CCl)c1ccccc1`, the boiling point amounted to 223 °C.
Still for that read-out and setting: in the case of `CCN(N)CC` it was 99 °C.
Compound `CCO` came in with a boiling point of 78.2 °C, a log10 Henry constant (atm·m³/mol) of -5.3, a log10 vapour pressure (mmHg) of 1.77 and a melting point of -114 °C. Also, the ready biodegradability result is recorded as “readily biodegradable”.
`N#CCc1ccc([N+](=O)[O-])cc1` returned a melting point of 117 °C.
In turn, `COc1ccccc1CN` displayed a boiling point of 229 °C.
Turning to `CC(=O)[C@H]1CC[C@H]2[C@@H]3CC[C@@H]4CC(=O)CC[C@]4(C)[C@H]3CC[C@]12C`, the melting point was 123 °C.
The compound `Nc1ccncn1` returned a melting point of 155 °C.
Consider `CC(C)(C)N=C=S`, for which the boiling point was found to be 140 °C and the melting point was 10.5 °C.
With `CC12CCC(CC1=O)C2(C)C` (stereo unspecified), the boiling point came out at 206 °C, the log10 vapour pressure (mmHg) is -0.665, the melting point is 179 °C and the ready biodegradability entry is on record as “readily biodegradable”.
Turning to `C1C2CC3C4CC5CC(C14)C(C2)C3C5`, the log10 biodegradation half-life (days) is 3.3.
As for `Cc1cc(O)ccc1[N+](=O)[O-]`, the log10 Henry constant (atm·m³/mol) is -7.79, the melting point worked out at 128 °C and the ready biodegradability result is listed as “not readily biodegradable”.
For `c1ccc(-c2ncoc2-c2ccccc2)cc1`, the melting point was found to be 44 °C.
Same read-out and setting: in the case of `NS(=O)(=O)c1ccccc1[N+](=O)[O-]` it was 191 °C.
Regarding `FC(F)(Cl)C(Cl)Cl`, the boiling point is 71.9 °C.
Regarding `CCCCCCCC#N`, the boiling point stood at 205 °C, the log10 vapour pressure (mmHg) is -0.409 and the melting point is -45.6 °C.
In the case of `Fc1c(F)c(F)c(I)c(F)c1F`, the boiling point stood at 166 °C and the melting point was -29 °C.
`CC(O)CNC1CCCCC1` (stereo unspecified): the log10 vapour pressure (mmHg) was -1.8.
In the case of `C[N+](C)(C)CCOC(=O)CCC(=O)OCC[N+](C)(C)C.[Cl-].[Cl-]`, the melting point was determined as 190 °C.
On to `O=C1CNC(=O)N1`, for which the melting point worked out at 220 °C and the ready biodegradability result is given as “readily biodegradable”.
As for `CNC(=O)Oc1cc(C)cc(C)c1`, the log10 Koc (L/kg) was found to be 1.71, the log10 vapour pressure (mmHg) was -3.44, the melting point came to 99 °C and the ready biodegradability entry is “not readily biodegradable”.
`C=C(C)C(=O)OCC(CC)CCCC` (stereo unspecified): the ready biodegradability result is recorded as “readily biodegradable”.
In turn, `CCCCCCCCCCc1ccc(N)cc1` displayed a melting point of 25 °C.
Consider `CCCCCCC(C)=O`, for which the boiling point was 172 °C, the log10 Henry constant (atm·m³/mol) is -3.73, the log10 vapour pressure (mmHg) was found to be 0.13 and the melting point is -16 °C. Also, the ready biodegradability entry is reported as “readily biodegradable”.
`COc1ccc(C(O)(c2cncnc2)C2CC2)cc1` (stereo unspecified) registered a log10 Henry constant (atm·m³/mol) of -10.8, a log10 Koc (L/kg) of 2.08, a log10 vapour pressure (mmHg) of -6.7 and a melting point of 110 °C.
The compound `C=CCC(C(C)=O)C(C)=O` gave a boiling point of 199 °C.
For `Cc1cccc2c1ccc1cc(C(C)C)ccc12`, the boiling point stood at 390 °C and the melting point was 101 °C.
For `Clc1c(Cl)c(Cl)c(C(Cl)Cl)c(Cl)c1Cl` the same measures were 334 °C and 120 °C.
In the case of `CN(C)C(=O)OC1=CC(=O)CC(C)(C)C1`, the melting point was 45.5 °C.
With `C[SiH]1O[SiH](C)O[SiH](C)O[SiH](C)O1` (stereo unspecified), the boiling point turned out to be 134 °C and the melting point is -65 °C.
Turning to `CC(c1ccccc1)c1ccc(O)c(C(C)c2ccccc2)c1C(C)c1ccccc1` (stereo unspecified), the ready biodegradability entry is “not readily biodegradable”.
Turning to `OCC(Cl)Cl`, the boiling point stood at 146 °C.
In the case of `O=C(O)[C@@]1(O)CC(O)[C@H](O)[C@H](O)C1` (stereo partly specified), the melting point came out at 162 °C.
The same measure, in the same setting: in the case of `COc1c(Cl)c(Cl)cc(Cl)c1Cl` it was 88.5 °C.
In turn, `CC(C)=CCC[C@@H](C)CC=O` displayed a boiling point of 207 °C.
The compound `N#CCCCCCC#N` returned a melting point of -31.4 °C.
In turn, `CCCC1CCCCC1` returned a boiling point of 157 °C, a log10 vapour pressure (mmHg) of 0.622 and a melting point of -94.9 °C.
Consider `CNC(=O)Nc1cccc(Cl)c1`, for which the log10 Koc (L/kg) amounted to 1.93.
Turning to `C#CCCOC1CCCCO1` (stereo unspecified), the ready biodegradability entry was “readily biodegradable”.
`O=C(OCc1ccco1)c1ccco1` yielded a melting point of 27.5 °C.
Still for that read-out and setting: the value for `CNC[C@H](O)[C@@H](O)[C@H](O)[C@H](O)CO` was 128 °C.
In the case of `Cc1ccc([N+](=O)[O-])cc1N`, the melting point was 106 °C.
As for `CC(=O)c1ccc(-n2ccnc2)cc1`, the ready biodegradability result is “readily biodegradable”.
For `FC(F)(F)C(F)(F)Cl`, the boiling point was -37.9 °C, the log10 vapour pressure (mmHg) amounted to 3.84 and the melting point is -99.4 °C.

As a reminder, the boiling point is the temperature of boiling at a given pressure. A word on the melting point: it is the temperature, or range, at which the solid turns liquid. The solubility is the concentration that dissolves in the medium under given conditions. Lower therefore signals a poorly soluble substance.
